“Also recorded” adds a separate entry of the source.
These compounds were tested on serum antibodies raised against the conjugate consisting of compound 3 covalently linked to CRM197 (assay: Carbohydrate microarray analysis of serum from Balb/c mice immunized with the conjugate of compound 3 and CRM197). Settings: pooled serum of Balb/c mice immunized with compound 3-CRM197 conjugate; compounds printed at 1 mM; FIG. 3.
Format: binding
Description: FIG. 3: left side: Analysis of pooled serum that was obtained 4 weeks after 1st immunization of Balb/c mice with a conjugate consisting of CRM197 covalently linked to compound 3; right side: Printing pattern: all compounds were printed in a 3×3 pattern and in a concentration of 1 mM; left, upper corner: compound 5; left lower corner: compound 3; right, upper corner: compound 4; right lower corner: (α-D-Mannopyranosyl)-(1→2)-(α-D-mannopyranosyl)-(1→2)-(α-D-mannopyranosyl)-(1→6)-(α-D-mannopyranosyl)-(1→4)-(2-amino-2-deoxy-α-D-glucopyranosyl)-(1→6)-1-O-(6-thiohexyl phosphono)-D-myo-inositol (Chem. Eur. J. 2005, 11, 2493).
Three female BALB/c mice were immunized s.c. with 35 μg conjugate, prepared as described in example 11a, in Freund's complete adjuvant. […] After the second immunization, serum was collected and the antibody titer (total IgG) was determined by microarray six weeks after the first immunization.
“6-O-(aminoethyl phosphono)-α-D-mannopyranosyl-(1→2)-α-D-mannopyranosyl-(1→6)-4-O-(α-D-glucopyranosyl-(1→4)-2-deoxy-2-acetamido-β-D-galactopyranosyl)-α-D-manno-pyranosyl-(1→4)-2-amino-2-deoxy-α-D-glucopyranosyl-(1→6)-1-O-(thiohexyl phosphono)-D-myo-inositol [compound 4]” was tested, and the “binding of serum antibodies to the glycan printed on the microarray” value (“binding of serum antibodies” below) was “not”.
With `N[C@H]1[C@@H](O[C@@H]2[C@@H](O)[C@H](O)[C@@H](O)[C@@H](O)[C@H]2OP(=O)(O)OCCCCCCS)O[C@H](CO)[C@@H](O[C@H]2O[C@H](CO[C@H]3O[C@H](CO)[C@@H](O)[C@H](O)[C@@H]3O[C@H]3O[C@H](CO)[C@@H](O)[C@H](O)[C@@H]3O[C@H]3O[C@H](CO)[C@@H](O)[C@H](O)[C@@H]3O)[C@@H](O)[C@H](O)[C@@H]2O)[C@@H]1O` [(α-D-Mannopyranosyl)-(1→2)-(α-D-mannopyranosyl)-(1→2)-(α-D-mannopyranosyl)-(1→6)-(α-D-mannopyranosyl)-(1→4)-(2-amino-2-deoxy-α-D-glucopyranosyl)-(1→6)-1-O-(6-thiohexylphosphono)-D-myo-inositol, reference compound] the “binding of serum antibodies” value was “not”.
With `CC(=O)NC1C(O)[C@@H](O)C(CO)O[C@H]1O[C@@H]1C(CO[C@H]2OC(CO)[C@@H](O)C(O)C2O[C@H]2OC(COP(=O)(O)OCCN)[C@@H](O)C(O)C2O)O[C@H](O[C@@H]2C(CO)O[C@H](O[C@@H]3C(O)C(O)[C@@H](O)C(O)C3OP(=O)(O)OCCCCCCS)C(N)C2O)C(O)C1O` (stereo partly drawn) [compound 3, 6-O-(aminoethylphosphono)-α-D-mannopyranosyl-(1→2)-α-D-mannopyranosyl-(1→6)-4-O-(2-deoxy-2-acetamido-β-D-galactopyranosyl)-α-D-mannopyranosyl-(1→4)-2-amino-2-deoxy-α-D-glucopyranosyl-(1→6)-1-O-(thiohexylphosphono)-D-myo-inositol] the “binding of serum antibodies” value was “specifically evoke a binding; also recorded: bound”.
For `CC(=O)NC1C(O)[C@@H](O)C(CO)O[C@H]1O[C@@H]1C(CO[C@H]2OC(CO)[C@@H](O)C(O)C2O[C@H]2OC(COP(=O)(O)OCCN)[C@@H](O)C(O)C2O)O[C@H](O[C@@H]2C(CO)O[C@H](O[C@@H]3C(O)C(O)[C@@H](O)C(O)C3OP(=O)(O)OCCCCCCS)C(N)C2O)C(OP(=O)(O)OCCN)C1O` (stereo partly drawn) [compound 5, 6-O-(aminoethylphosphono)-α-D-mannopyranosyl-(1→2)-α-D-mannopyranosyl-(1→6)-2-O-(aminoethylphosphono)-4-O-(2-deoxy-2-acetamido-β-D-galactopyranosyl)-α-D-mannopyranosyl-(1→4)-2-amino-2-deoxy-α-D-glucopyranosyl-(1→6)-1-O-(thiohexylphosphono)-D-myo-inositol], the “binding of serum antibodies” value was “not and did not show cross reactivity”.
